From patent publication US20020076452A1, “Combinations of sesquiterpene lactones and ditepene lactones or triterpenes for synergistic inhibition of cyclooxygenase-2” (Ashni Naturaceuticals, Inc., priority 2000, published 2002)

How the values were obtained:
[1] = tested on: COX-2; experiment: Inhibition of COX-2 enzyme protein expression in stimulated Jurkat cells (western blot); type: cell-based, Human; settings: in the absence and presence of arachidonic acid, dose-range tested
Source text: Chemicals: Anti-COX-2 antibodies may be purchased from Upstate Biotechnology (Lake Placid, N.Y.). Parthenolide and andrographolide may be obtained from Sigma (St. Louis, Mo.). Arachidonic acid (AA), PMA and all other chemical may also be purchased from Sigma and are of the highest purity commercially available.
Human T cell lines: The Jurkat cell line is useful as a model for human T cells and may be obtained from the American Type Culture Collection (Bethesda, Md.). COX-2 is inducible in the Jurkat cell by PMA.
Cell plating: The Jurkat cells are propagated in suspension according to the instructions of the supplier. For experimentation, cells are seeded from a log-phase culture at a density of 1×10^5 cells per mL in 100 mm plates, 20 mL per plate, 3 plates per treatment. Serum concentration in the test medium is maintained at 0.5%.
Complete transfers are accomplished in 25-30 minutes at 500 mA. Membranes used for blotting are blocked by incubating in TBS (Tris buffered saline, 50 mM Tris, 150 mM NaCl, pH 7.5) containing 5% nonfat dry milk for 30 minutes at room temperature. COX-2 protein is visualized by incubation of the blots with the anti-COX-2 antibody in TBST (0.5% Tween 20 in TBS) for two hours and then a second incubation at room temperature with alkaline phosphatase-conjugated secondary antibody diluted 1:1000 in TBST for two hours. The enzymatic reaction is developed for 15 minutes. The molecular weight of COX-2 is estimated by adding a molecular weight standard to reference lanes and staining the membrane filters with amido black 10B.
Blots are translated into TIFF-formatted files with a Microtech 600GS scanner and quantified using Scan Analysis (BIOSOFT, Cambridge, UK). Summary scans are then printed and peak heights are measured directly from the figure. One density unit (Du) is defined as one mm of the resulting peak height.
Appropriate controls receive solvent only. […] Twenty-four hours after treatment, the cells are harvested, lysed and western blotting is done for the determination of COX-2 protein expression.

[2] = target: T1, COX-2 (Mus musculus, UniProt Q05769); experiment: cell-based
T1 sequence (Q05769 18-604): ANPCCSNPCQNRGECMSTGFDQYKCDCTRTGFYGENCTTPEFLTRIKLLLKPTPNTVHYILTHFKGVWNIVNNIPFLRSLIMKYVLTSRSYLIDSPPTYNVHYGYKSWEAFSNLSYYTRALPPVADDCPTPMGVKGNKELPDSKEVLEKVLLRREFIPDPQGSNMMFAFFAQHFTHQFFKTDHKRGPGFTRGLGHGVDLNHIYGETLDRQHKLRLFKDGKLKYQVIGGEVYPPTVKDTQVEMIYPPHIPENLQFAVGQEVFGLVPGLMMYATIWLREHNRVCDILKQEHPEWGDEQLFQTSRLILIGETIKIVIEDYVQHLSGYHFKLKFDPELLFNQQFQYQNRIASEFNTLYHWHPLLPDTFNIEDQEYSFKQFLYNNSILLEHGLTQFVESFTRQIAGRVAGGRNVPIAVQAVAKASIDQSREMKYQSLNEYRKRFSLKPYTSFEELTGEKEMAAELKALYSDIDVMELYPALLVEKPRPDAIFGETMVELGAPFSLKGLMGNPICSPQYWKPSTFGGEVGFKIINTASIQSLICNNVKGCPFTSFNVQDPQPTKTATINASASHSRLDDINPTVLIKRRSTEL
Procedure: Inhibition of COX-2 Mediated Production of PGE2 in RAW 264.7 Cells
General Procedure—RAW 264.7 cells, obtained from ATCC, were grown in DMEM medium and maintained in log phase growth.
On day one of the experiment, the log phase 264.7 cells were plated at 8×10^4 cells per well in 0.2 mL growth medium per well in a 96-well tissue culture plate. After 6 to 8 hours post plating, 100 μL of growth medium from each well was removed and replaced with 100 μL fresh medium. A 1.0 mg/mL solution of LPS, which was used to induce the expression of COX-2 in the RAW 264.7 cells, was prepared by dissolving 1.0 mg of LPS in 1 mL DMSO.
On day two of the experiment, the test materials were prepared as 1000×stock in DMSO. For example, if the final concentration of the test material was to be 10 μg/mL, a 10 mg/mL stock was prepared by dissolving 10 mg of the test material in 1 mL of DMSO. Fresh test materials were prepared on day 2 of the experiment. In 1.7 mL microfuge tubes, 1 mL DMEM without FBS was added to obtain test concentrations of 0.05, 0.10,0.5, and 1.0 μg/mL. 2 μL of the 1000×DMSO stock of the test material was added to the 1 mL of medium without FBS. The tube contained the final concentration of the test material was concentrated 2-fold. The tube was placed in incubator for 10 minutes to equilibrate.
One-hundred mL of medium was removed from each well of the cell plates prepared on day one. […]

SMILES | Inhibition of COX-2 protein expression [1] | IC50 [2] [µM]
C=C1CC[C@@H]2[C@](C)(CO)[C@H](O)CC[C@@]2(C)[C@@H]1C/C=C1/C(=O)OC[C@H]1O [Andrographolide, andrographolide] | little effect | 34.8
C[C@H]1[C@H](C)CC[C@]2(C(=O)O)CC[C@]3(C)C(=CC[C@@H]4[C@@]5(C)CC[C@H](O)C(C)(C)[C@@H]5CC[C@]43C)[C@H]12 [Ursolic acid, ursolic acid] | does not inhibit | 35.3
CC1(C)CC[C@]2(C(=O)O)CC[C@]3(C)C(=CC[C@@H]4[C@@]5(C)CC[C@H](O)C(C)(C)[C@@H]5CC[C@]43C)[C@@H]2C1 [Oleanolic acid, oleanolic acid] | does not inhibit | 
